Data published in patent US20100130569A1, “PROPHYLACTIC OR THERAPEUTIC AGENT FOR POSTERIOR OCULAR DISEASE COMPRISING NON-ERGOT SELECTIVE D2 RECEPTOR AGONIST AS ACTIVE INGREDIENT” (SATEN PHARMACEUTICAL CO., LTD., priority 2007, published 2010).
Structures can show the parent of a compound that is named as a salt. Where two headings read alike, the source gives them in different places.

Legend:
[1] = test system: laser-induced choroidal neovascularization; assay: rat models of krypton laser-induced choroidal neovascularization; format: in vivo; settings: for inhibitory effect on neovascularization in the choroid (in words): rat models of laser-induced choroidal neovascularization, summary of Table 1; for Suppression rate (%) (inhibition rate of choroidal neovascularization incidence): rat, day 7 after photocoagulation, vs vehicle
Protocol: The photocoagulation was performed in a posterior fundus at eight spots per eye sparsely by focusing on the retinal deep layer avoiding thick retinal blood vessels (coagulation conditions: spot size: 100 μm, output: 100 mW, coagulation time: 0.1 sec). After the photocoagulation, the ocular fundus was photographed, and the site where the laser was irradiated was confirmed.
Each of the solutions of Compound A at such concentrations was orally administered once daily at a dose of 0.3 mg/kg or 1 mg/kg starting from the day of photocoagulation surgery for 7 days including the day of surgery. […] Each of the solutions of Compound B at such concentrations was orally administered once daily at a dose of 0.3 mg/kg or 1 mg/kg starting from the day of photocoagulation surgery for 7 days including the day of surgery. On the other hand, Compound C was dissolved in PBS (phosphate buffer) at a concentration of 100 mg/ml, and the resulting solution of Compound C was intraperitoneally administered once daily at a dose of 100 mg/kg starting from the day of photocoagulation surgery for […] the day of surgery.
In the fluorescence fundus photography, a spot where fluorescence leakage was not observed (absence of neovascularization) was judged as negative, and a spot where fluorescence leakage was observed was judged as positive (presence of neovascularization). When there are two photocoagulation sites where a little fluorescence leakage was observed, they were judged as positive (presence of neovascularization). […] The case number in each administration group is 7 to 8.
Choroidal neovascularization incidence rate (%)=(Number of positive spots/total number of photocoagulation sites)×100 [Equation 1]
Inhibition rate (%)=(A0−Ax)/A0×100 [Equation 2]
A0: Choroidal neovascularization incidence rate of vehicle administration group Ax: Choroidal neovascularization incidence rate of drug administration group

[2] = test system: photoreceptor cell damage caused by light exposure; settings: for suppressive effect on photoreceptor cell damage (in words): mouse models of light damage, summary of Table 2; for Suppression rate (%) based on a-wave / Suppression rate (%) based on b-wave: mouse, one hour before light exposure, ERG one day after
Protocol: After a 0.5% (w/v) tropicamide-0.5% phenylephrine hydrochloride ophthalmic solution was instilled into the eyes of a mouse to cause mydriasis, light damage was induced in the mouse by light exposure (exposure conditions: illuminance level: 5000 Lux, exposure time: 2 hours) with an apparatus for inducing light damage (Sakami Medical Instrument).
Compound A was dissolved in a 1% (w/v) methyl cellulose solution (prepared by dissolving methyl cellulose in purified water) at a concentration of 0.006, 0.02, 0.06 or 0.2 mg/ml, whereby solutions of Compound A were prepared. Each of the solutions of Compound A was orally administered once at a dose of 0.03, 0.1, 0.3 or 1 mg/kg one hour before light exposure. Compound B was also orally administered in the same manner. That is, Compound B was dissolved in a 1% (w/v) methyl cellulose solution at a concentration of 0.02 or 0.2 mg/ml, whereby solutions of Compound B were prepared. Each of the solutions of Compound B was orally administered once at a dose of 0.1 or 1 mg/kg one hour before light exposure. In a vehicle administration group, a 1% (w/v) methyl cellulose solution was administered in the same manner.
One day after light exposure, each mouse was given general anesthesia by intramuscular administration of 2 ml/kg of a mixed solution of a 5% (w/v) ketamine hydrochloride injectable solution, a 2% xylazine hydrochloride injectable solution and physiological saline (7:1:8), and a 0.5% (w/v) tropicamide-0.5% phenylephrine hydrochloride ophthalmic solution was instilled into the eyes to cause mydriasis. Then, the electroretinogram (ERG) was measured using portable ERG & VEP LE-3000 (Tomey Corporation) (measurement conditions: stimulus luminance: 3000 cd/m^2, stimulus duration: 10 msec, background light luminance: 0 cd/m^2), and a- and b-wave amplitudes were calculated from the obtained waveforms. Then, the suppression rate (%) of the drug to be evaluated against the decrease in a- and b-wave amplitudes (photoreceptor cell damage) caused by light exposure was calculated in accordance with Equations 3 and 4. The case number in each administration group was 6 to 8 per group, and the mean value was used for calculating the suppression rate.
Suppression rate against photoreceptor cell damage (%) based on a-wave=(AAZ−AAY)/(AAX−AAY)×100 [Equation 3]
AAX: a-wave amplitude in normal (untreated) group AAY: a-wave amplitude in group with light exposure and vehicle administration AAZ: a-wave amplitude in group with light exposure and drug administration
Suppression rate against photoreceptor cell damage (%) based on b-wave=(ABZ−ABY)/(ABX−ABY)×100 [Equation 4]
ABX: b-wave amplitude in normal (untreated) group ABY: b-wave amplitude in group with light exposure and vehicle administration ABZ: b-wave amplitude in group with light exposure and drug administration

[3] = test system: thrombin-induced retinal vascular hyperpermeability
Protocol: A rat was given general anesthesia by intramuscular administration of 1 ml/kg of a mixed solution of a 5% (w/v) ketamine hydrochloride injectable solution and a 2% xylazine hydrochloride injectable solution (7:1), and a 0.5% (w/v) tropicamide-0.5% phenylephrine hydrochloride ophthalmic solution was instilled into the eyes to cause mydriasis. Then, 5 μl of thrombin (600 U/mL) was injected into the vitreous body using a 33-gauge needle so as not to hurt the lens and retina. To a rat in a normal group, PBS (phosphate buffer) was injected instead of thrombin.
In a vehicle administration group, a 1% (w/v) methyl cellulose solution was administered in the same manner.
At 24 hours after intravitreal injection of thrombin, each rat was killed by exsanguination, and then, the eyeball of the rat was enucleated while avoiding contamination with blood. […] The collected vitreous body was appropriately diluted with purified water and the protein concentration was determined by the Bradford method. The thus determined protein concentration in the vitreous body was used as an index of retinal vascular permeability. Then, the suppression rate (%) of the drug to be evaluated against the retinal vascular hyperpermeability induced by thrombin was calculated in accordance with Equation 5. […]

[4] = 0.3 mg/kg orally once daily for 7 days
[5] = 1 mg/kg orally once daily for 7 days

Cl.NCCc1ccc(O)c(O)c1 [Compound C, dopamine hydrochloride]
inhibitory effect on neovascularization in the choroid (in words) [1]: hardly or not at all observed | Suppression rate (%) (inhibition rate of choroidal neovascularization incidence) ([1]; 100 mg/kg intraperitoneally once daily): 11.8%

CC(C)C[C@H]1C(=O)N2CCC[C@H]2[C@]2(O)O[C@](NC(=O)[C@@H]3C=C4c5cccc6[nH]c(Br)c(c56)C[C@H]4N(C)C3)(C(C)C)C(=O)N12 [Compound B, bromocriptine mesilate]
suppressive effect on photoreceptor cell damage (in words) [2]: hardly or not at all observed | Suppression rate (%) based on a-wave ([2]; 0.1 mg/kg orally once): 0.2% | Suppression rate (%) based on b-wave ([2]; 0.1 mg/kg orally once): −3.8% | Suppression rate (%) based on a-wave ([2]; 1 mg/kg orally once): 4.8% | Suppression rate (%) based on b-wave ([2]; 1 mg/kg orally once): 4.9% | inhibitory effect on neovascularization in the choroid (in words) [1]: hardly or not at all observed | Suppression rate (%) (inhibition rate of choroidal neovascularization incidence) [1, 4]: −2.1% | Suppression rate (%) (inhibition rate of choroidal neovascularization incidence) [1, 5]: 4.1%

CCCN[C@H]1CCc2nc(N)sc2C1 [Compound A, pramipexole hydrochloride]
suppressive effect on photoreceptor cell damage (in words) [2]: significantly suppresses photoreceptor cell damage | Suppression rate (%) based on a-wave ([2]; 0.03 mg/kg orally once): 41.4% | Suppression rate (%) based on b-wave ([2]; 0.03 mg/kg orally once): 49.2% | Suppression rate (%) based on a-wave ([2]; 0.1 mg/kg orally once): 47.3% | Suppression rate (%) based on b-wave ([2]; 0.1 mg/kg orally once): 44.1% | Suppression rate (%) based on a-wave ([2]; 0.3 mg/kg orally once): 70.0% | Suppression rate (%) based on b-wave ([2]; 0.3 mg/kg orally once): 72.1% | Suppression rate (%) based on a-wave ([2]; 1 mg/kg orally once): 102.0% | Suppression rate (%) based on b-wave ([2]; 1 mg/kg orally once): 92.1% | inhibitory effect on neovascularization in the choroid (in words) [1]: inhibits choroidal neovascularization | Suppression rate (%) (inhibition rate of choroidal neovascularization incidence) [1, 4]: 60.9% | Suppression rate (%) (inhibition rate of choroidal neovascularization incidence) [1, 5]: 60.9% | suppressive effect on retinal vascular hyperpermeability (in words) ([3]; rat models of thrombin-induced retinal vascular hyperpermeability, summary of Table 3): excellent suppressive effect on retinal vascular hyperpermeability | Suppression rate (%) against retinal vascular permeability ([3]; rat, 1 mg/kg orally immediately before and 20 hours after intravitreal thrombin, vitreous protein at 24 hours): 9.9%
